From patent US9962402B2, “Healing composition for topical application” (BIOPASS S.A., priority 2011, dated 2018)
“Also recorded” adds a separate entry of the source.

Test system: wound healing
Assay: Effect on wound healing (discovered in the context of the invention, no method given)
Format: in vivo
Details: present in a gel

`CCOCCOCCO` [ethoxydiglycol] was tested, and the “effect on wound healing” value was “significantly slows wound healing; also recorded: significantly delays wound healing”.
